Experimental data reported in US20160151503A1, “COMPOSITIONS AND PREPARATION METHODS OF LOW MELTING IONIC SALTS OF POORLY-WATER SOLUBLE DRUGS” (MW ENCAP LIMITED, priority 2013, published 2016).
Where a name gives a salt, the structure may show the parent alone.

What was measured:
[1] = Drug solubility in exemplar lipid formulations (SEDDS) and individual excipients
Experimental: Where lipid based formulations have been employed, formulations were made up in glass vials by weighing the appropriate quantities of excipient directly into the vial, followed by mixing
In some cases the solubility of the low melting ionic salt in individual excipients was also measured.
Drug solubility in each formulation was assessed in one of two ways. Firstly, quantitatively, by incubating formulations with excess drug at 37 degrees and taking samples over time. These samples were centrifuged to pellet solid material and the drug concentration in the formulation assessed by HPLC.

[2] = Itraconazole plasma pharmacokinetics after oral administration of comparative formulations to rats; type: in vivo; conditions: same equivalent dose of ITZ FB, solution in SEDDS
Experimental: Note that the very low solubility of ITZ free base precludes formulation as a lipid based formulation. It is only via isolation as the IL that this possibility is realised since the solubility of the ITZ IL in lipid formulations is very much higher. All were dosed at the same dose (20 mg/kg).
The isolation of ITZ as the docusate IL increased drug solubility in the SEDDS formulation and allowed administration as a Solution in the SEDDS formulation. […] ITZ FB was not sufficiently soluble in the SEDDS formulation to allow administration as a solution in the SEDDS at any reasonable dose and was therefore dosed as a suspension in the SEDDS formulation and also as an aqueous suspension. The same dose was administered as the commercial Sporanox formulation of ITZ FB
It is apparent that the ITZ IL formulation allowed administration of a much higher ITZ dose as a solution in a lipid based formulation and that this in turn led to much higher plasma levels than the equivalent suspension formulation of the free base, or the commercial Sporanox formulation.

[3] = Equilibrium solubility in colloids formed by in vitro digestion of blank SEDDS in simulated intestinal fluid; type: physicochemical; conditions: colloids from 60 min digestion of blank LC2 SEDDS (1 g in 39 mL SIF), pH 6.5, 37° C.
Experimental: In this experiment blank SEDDS formulation (1 g) was dispersed in 39 mL of simulated intestinal fluid. (SIF) (2 mM Tris-maleate, 1.4 mM CaCl2.H2O, 150 mM NaCl, 3 mM NaTDC, 0.75 mM PC, pH 6.5, 37° C.) and pancreatic enzymes added to stimulate digestion. The experiment was conducted at 37° C. and allowed to continue for 60 mins. […] From the data in Table 5.3 below it is apparent that synthesis of the IL increases drug affinity for intestinal colloidal phases and therefore increases solubilisation in the GI tract—consistent with the increases in exposure seen in FIG. 3

[4] = In vitro dispersion and digestion of cinnarizine decylsulfate SEDDS solution in simulated intestinal fluid; type: in vitro ADME; conditions: after in vitro dispersion or digestion of SEDDS solution in SIF
[5] = Table 7 Tolfenamic Acid, MC SEDDS
[6] = SEDDS: 15% soybean oil, 15% Maisine 35-1, 60% Cremophor EL, 10% EtOH
[7] = Table 8 Meclofenamic Acid, MC SEDDS

Cc1c(Cl)cccc1Nc1ccccc1C(=O)O [Tolfenamic acid dodecylammonium salt, Tolfenamic Acid, Dodecylammonium Salt]
Solubility in MC^2 SEDDS (mg/g) Free base equiv. [1, 5]: >50 mg/g

COc1ccc2c(c1)[C@]13CCCC[C@@H]1[C@H](C2)N(C)CC3 [Dextromethorphan, reference compound]
Solubility in MC SEDDS (mg/g) Free base equiv. ([1]; Table 5 Dextromethorphan and Metformin, MC SEDDS): <50 mg/g

Cc1c(Cl)cccc1Nc1ccccc1C(=O)O [Tolfenamic acid, N-decyl-N,N- dimethyldodecylammonium salt] [Tolfenamic Acid, N-decyl-N,N-dimethyldodecylammonium Salt]
Solubility in MC^2 SEDDS (mg/g) Free base equiv. [1, 5]: >200 mg/g

C(=C/c1ccccc1)/CN1CCN(C(c2ccccc2)c2ccccc2)CC1 [Cinnadzine free base, Cinnarizine, reference compound]
cinnarizine solubility in the lipid vehicle [1, 6]: approximately 44 mg/g

CCC(C)n1ncn(-c2ccc(N3CCN(c4ccc(OCC5COC(Cn6cncn6)(c6ccc(Cl)cc6Cl)O5)cc4)CC3)cc2)c1=O (stereo not shown) [Itraconazole- diocytlsulfosuccinate, Itraconazole Dioctylsulfosuccinate (Docusate)]
Solubility in LC^2 SEDDS (mg/g) itraconazole equiv. ([1]; LC2 SEDDS: 30% SBO, 30% Maisine, 30% CrEL, 10% EtOH): 159.8 mg/g
plasma levels compared to the commercial formulation [2]: ~2.5 fold
Solubility in simulated intestinal fluid plus lipid digestion products ([3]; listed as ITZ-docusate IL): 1720 ± 150 µg/mL

CCC(C)n1ncn(-c2ccc(N3CCN(c4ccc(OCC5COC(Cn6cncn6)(c6ccc(Cl)cc6Cl)O5)cc4)CC3)cc2)c1=O (stereo not shown) [Itraconazole free base, Itraconazole, reference compound]
Solubility in simulated intestinal fluid plus lipid digestion products ([3]; listed as ITZ FB): <47 µg/mL

C(=C\c1ccccc1)/CN1CCN(C(c2ccccc2)c2ccccc2)CC1 [Cinnarizine-decylsulfate, Cinnarizine Decylsulfate]
miscibility with the SEDDS formulation [1, 6]: essentially miscible
incorporated drug remaining solubilized in an aqueous phase [4]: more than 95%

Cc1ccc(Cl)c(Nc2ccccc2C(=O)O)c1Cl [Meclofenamic acid, N-decyl-N,N- dimethyldodecylammonium salt] [Meclofenamic Acid, N-decyl-N,N-dimethyldodecylammonium Salt]
Solubility in MC^2 SEDDS (mg/g) Free base equiv. [1, 7]: >240 mg/g

Cc1c(Cl)cccc1Nc1ccccc1C(=O)O [Tolfenamic acid, N-butyl- N,N-dimethylbutyl-N- dodecylammoni] [Tolfenamic Acid, N-butyl-N,N-dimethylbutyl-N-dodecylammonium Salt]
Solubility in MC^2 SEDDS (mg/g) Free base equiv. [1, 5]: >200 mg/g

Cc1ccc(Cl)c(Nc2ccccc2C(=O)O)c1Cl [Meclofenamic acid, 1- hexadecyl-3- methylpyridinium salt] [Meclofenamic Acid, 1-hexadecyl-3-methylpyridinium Salt]
Solubility in MC^2 SEDDS (mg/g) Free base equiv. [1, 7]: >240 mg/g
